{
  "source": "paper PMC4084891",
  "about": "“Decreased Phenotypic Susceptibility to Etravirine in Patients with Predicted Genotypic Sensitivity” (PLoS ONE, 2014)",
  "key": {"[1]": {"biological_target": "HIV-1 reverse transcriptase, recovered from plasma of HIV-1 infected patients", "set-up": "method as in PMID 23364785", "conditions": "cited from earlier work"}, "[2]": {"tested_on": "HIV-1 reverse transcriptase, recovered from plasma of HIV-1 infected patients", "experiment": "ExaVir Drug susceptibility assay (RT-based phenotypic), RT recovered from patient plasma", "format": "biochemical", "description": "Lysates containing intraviral RT were recovered from plasma using ExaVir Load, version 3 (Cavidi, Uppsala, Sweden). Briefly, virions from up to 1 ml plasma were bound to an ion exchange gel, washed, and the RT was extracted by lysing the purified virions. The RT was used to catalyse the incorporation of bromodeoxyuridine triphosphate (BrdUTP) into DNA via a poly-rA (ribodenylic acid template) plate. The amount of BrdU monophosphate (BrdUMP) incorporated into DNA was detected with an alkaline phosphatase (Ap) conjugated anti-BrdU monoclonal antibody. The Ap substrate para-nitrophenyl-diphosphate was used for colorimetric detection. […] The RT activity at each drug concentration was recalculated into percentage of RT activity in the absence of drug. The IC50 values were calculated using the median effect equation [23]. […] In the present study, two reference recombinant RTs, BH10-wild-type and its mutant form L100I, were analysed together with patient samples in each assay. The results of the phenotypic tests were evaluated independently by two persons (E.A, C.FR.K)."}},
  "note": "Read-outs that look alike come from different tables or passages of the source.",
  "data": [
    {"smiles": "Cc1cc(C#N)cc(C)c1Oc1nc(Nc2ccc(C#N)cc2)nc(N)c1Br", "note": "[ETR, 4-[[6-amino-5-bromo-2[(4-cyanophenyl)amino]-4-pyrimidinyl]oxy]-3.5-dimethylbenzonitrile]", "values": [
      {"measurement": "IC50", "setting": "[1]; read-out: IC50 for ETR, mean ± SD (reproducibility analysis, first value), not influenced by RT amount within 40–828 fg/ml RT", "result": "1.6 ± 0.03", "unit": "µM"},
      {"measurement": "IC50", "setting": "[1]; read-out: IC50 for ETR, mean ± SD (reproducibility analysis, second value), not influenced by RT amount within 40–828 fg/ml RT", "result": "3.1 ± 0.04", "unit": "µM"},
      {"measurement": "IC50", "setting": "[1]; read-out: IC50 for RT activity in the presence of ETR, mean ±SD, treatment-naïve patients and reference recombinant RTs", "result": "2.5 ± 1", "unit": "µM"},
      {"measurement": "result of phenotypic assay", "setting": "[2]; patient 4, K103R mutation, NNRTI-naïve", "result": "sensitive"},
      {"measurement": "result of phenotypic assay", "setting": "[2]; patients/samples 7, 11b, 15, 9a and 12, NNRTI stopped earlier", "result": "No phenotypic resistance"},
      {"measurement": "IC50", "setting": "[2]; read-out: IC50 to ETR, mean ±SD, ten samples considered sensitive (3a, 4, 7, 9a, 11b, 12, 15, 16, 17, 18)", "result": "3.1 ± 1.3", "unit": "µM"},
      {"measurement": "IC50", "setting": "[2]; read-out: IC50 to ETR, range, six samples with decreased susceptibility (1, 9b, 10, 11a, 19, 20)", "result": "6.4 to 13.6", "unit": "µM"},
      {"measurement": "IC50", "setting": "[2]; read-out: IC50 to ETR, patient sample 1", "result": 11.8, "unit": "µM"},
      {"measurement": "IC50", "setting": "[2]; read-out: IC50 to ETR, patient sample 2", "result": "> 100", "unit": "µM"},
      {"measurement": "IC50", "setting": "[2]; read-out: IC50 to ETR, patient sample 3b", "result": "> 100", "unit": "µM"},
      {"measurement": "IC50", "setting": "[2]; read-out: IC50 to ETR, patient sample 6", "result": "> 100", "unit": "µM"},
      {"measurement": "IC50", "setting": "[2]; read-out: IC50 to ETR, patient sample 8a", "result": "> 100", "unit": "µM"},
      {"measurement": "IC50", "setting": "[2]; read-out: IC50 to ETR, patient sample 8b", "result": "> 100", "unit": "µM"},
      {"measurement": "IC50", "setting": "[2]; read-out: IC50 to ETR, patient sample 9b", "result": 9.2, "unit": "µM"},
      {"measurement": "IC50", "setting": "[2]; read-out: IC50 to ETR, patient sample 10", "result": 13.6, "unit": "µM"},
      {"measurement": "IC50", "setting": "[2]; read-out: IC50 to ETR, patient sample 11a", "result": 7.3, "unit": "µM"},
      {"measurement": "IC50", "setting": "[2]; read-out: IC50 to ETR, patient sample 19", "result": 6.4, "unit": "µM"},
      {"measurement": "IC50", "setting": "[2]; read-out: IC50 to ETR, patient sample 20", "result": 7.2, "unit": "µM"}
    ]}
  ]
}
